Source: US7439041B2 (Novartis Vaccines and Diagnostics, Inc., priority 2003, dated 2008)

Each substance was assayed against T1, PrP^Sc (Mus musculus, UniProt P04925).
Type: binding
Target sequence in this assay (P04925 23-230 limits assumed): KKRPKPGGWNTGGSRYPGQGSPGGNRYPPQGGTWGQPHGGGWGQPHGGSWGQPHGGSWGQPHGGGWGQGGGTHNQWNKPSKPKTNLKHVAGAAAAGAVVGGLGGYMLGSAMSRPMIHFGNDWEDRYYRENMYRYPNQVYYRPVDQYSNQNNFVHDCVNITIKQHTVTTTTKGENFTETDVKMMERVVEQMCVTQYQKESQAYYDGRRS
For “QWNKPSKPKTN(GGG)QWNKPSKPKTN [SEQ ID NO: 51]”, the “ELISA A405nm” value was “.923”.

Target: T1, PrP^Sc
Type: binding
Design: key to Western Blot: −: Visually evaluated relative signal intensity; +/−: Visually evaluated relative signal intensity; +: Visually evaluated relative signal intensity; ++: Visually evaluated relative signal intensity; +++: Visually evaluated relative signal intensity; ++++: Visually evaluated relative signal intensity; +++++: Visually evaluated relative signal intensity
Remark: another data set of the same source
With “(GG)C(GGG)RPMIHFGNDWEDRYYRENMYR(GGG)C [SEQ ID NO: 46]” the “Western Blot” value was “+”. (GGG)AKRPKPGG [SEQ ID NO: 104] was tested, and the “Western Blot” value was “+”. For (GGG)GPKRKGPK [SEQ ID NO: 73], the “Western Blot” value was “+”. (GGG)KARPKPGG [SEQ ID NO: 105] was tested, and the “Western Blot” value was “+”. For (GGG)KKAPKAGG [SEQ ID NO: 108], the “Western Blot” value was “+”. In the case of (GGG)KKAPKPGG [SEQ ID NO: 106], the “Western Blot” value is reported as “+”. For “(GGG)KKKKKKKK (GGGKKKKKKKK) [SEQ ID NO: 85]”, the “Western Blot” value was “+^3”. (GGG)KKRAKAGG [SEQ ID NO: 98] was tested, and the “Western Blot” value was “+”. For (GGG)KKRAKPGG [SEQ ID NO: 96], the “Western Blot” value was “+ and ++”. (GGG)KKRPAPGG [SEQ ID NO: 107] was tested, and the “Western Blot” value was “+”. With (GGG)KKRPKAGG [SEQ ID NO: 97] the “Western Blot” value was “+ and ++”. In the case of (GGG)KKRPKPGG [SEQ ID NO: 68], the “Western Blot” value is reported as “+++” and the “binding to PrPSc in infected mouse brain homogenate samples (Western blot, FIG. 4)” value is reported as “strong binding”. (GGG)KKRPKPGGGKKRPKPGG [SEQ ID NO: 72] was tested, and the “Western Blot” value was “+”. For “(GGG)KKRPKPGGGQWNKPSKPKTN [SEQ ID NO: 81]”, the “Western Blot” value was “+”. In the case of (GGG)KKRPKPGGWNTGG [SEQ ID NO: 67], the “Western Blot” value is reported as “++”. For “(GGG)KKRPKPGGWNTGGSRYPGQGS [SEQ ID NO: 66]”, the “Western Blot” value was “+”. For (GGG)KPSKPK [SEQ ID NO: 80], the “Western Blot” value was “−”. In the case of (GGG)NKPSKPK [SEQ ID NO: 79], the “Western Blot” value is reported as “−”. For (GGG)NNKQSPWPTKK [SEQ ID NO: 87], the “Western Blot” value was “−”. For (GGG)QANKPSKPKTN [SEQ ID NO: 89], the “Western Blot” value was “+ and +++”. For (GGG)QWNAPSKPKTN [SEQ ID NO: 92], the “Western Blot” value was “− and +”. (GGG)QWNKASKAKTN [SEQ ID NO: 95] was tested, and the “Western Blot” value was “−”. (GGG)QWNKASKPKTN [SEQ ID NO: 90] was tested, and the “Western Blot” value was “−”. (GGG)QWNKASKPKTN [SEQ ID NO: 99] was tested, and the “Western Blot” value was “+/−”. For (GGG)QWNKPSAPKTN [SEQ ID NO: 93], the “Western Blot” value was “− and +”. (GGG)QWNKPSKAKTN [SEQ ID NO: 91] was tested, and the “Western Blot” value was “− and +”. With (GGG)QWNKPSKPATN [SEQ ID NO: 94] the “Western Blot” value was “− and +”. For (GGG)QWNKPSKPKTN [SEQ ID NO: 14], the “Western Blot” value was “+++”. With “(GGG)RPMIHFGNDWEDRYYRENMYR(GG)C [SEQ ID NO: 76]” the “Western Blot” value was “−”. (GGG)WNKPSKPKT [SEQ ID NO: 75] was tested, and the “Western Blot” value was “−”. “(GGGG)C(GG)GGWGQGGGTHNQWNKPSKPKTNLKHV(GGGG)C [SEQ ID NO: 35]” was tested, and the “Western Blot” value was “+”. With “(GGGG)GGWGQGGGTHNQWNKPSKPKTNLKHV [SEQ ID NO: 36]” the “Western Blot” value was “+”. (KKK)AGAAAAGAVVGGLGG [SEQ ID NO: 65] was tested, and the “Western Blot” value was “++”. With “(KKK)AGAAAAGAVVGGLGGYMLGSAM [SEQ ID NO: 57]” the “Western Blot” value was “+”. With “C(GG)GGWGQGGGTHNQWNKPSKPKTNLKHV(GGGG)C [SEQ ID NO: 40]” the “Western Blot” value was “+”. “DDDAGAAAAGAVVGGLGGYMLGSAM [SEQ ID NO: 83]” was tested, and the “Western Blot” value was “−”. “DDDAGAAAAGAVVGGLGGYMLGSAMDDD [SEQ ID NO: 86]” was tested, and the “Western Blot” value was “−”. With DKDKGGVGALAGAAVAAGGDKDK [SEQ ID NO: 88] the “Western Blot” value was “−”. In the case of GGTHNQWNKPSKPKTN [SEQ ID NO: 54], the “Western Blot” value is reported as “+”. In the case of GGWGQGGGTHNQWNKPSKPKTN [SEQ ID NO: 53], the “Western Blot” value is reported as “+”. For “GGWGQGGGTHNQWNKPSKPKTNLKHV(GGGG) [SEQ ID NO: 37]”, the “Western Blot” value was “+”. With “KKKAGAAAAGAVVGGLGGYMLGSAMDDD [SEQ ID NO: 82]” the “Western Blot” value was “−”. With “KKKAGAAAAGAVVGGLGGYMLGSAMKKK [SEQ ID NO: 84]” the “Western Blot” value was “+”. PHGGGWGQ [SEQ ID NO: 71] was tested, and the “Western Blot” value was “−”. With PHGGGWGQHGGSWGQPHGGSWGQ [SEQ ID NO: 69] the “Western Blot” value was “−”. PHGGGWGQPHGGSWGQ [SEQ ID NO: 70] was tested, and the “Western Blot” value was “−”. QWNKPSKPKTN(GGG) [SEQ ID NO: 50] was tested, and the “Western Blot” value was “+”. In the case of “QWNKPSKPKTN(GGG)QWNKPSKPKTN [SEQ ID NO: 51]”, the “Western Blot” value is reported as “+++”. For QWNKPSKPKTNLKHV(GGG) [SEQ ID NO: 77], the “Western Blot” value was “++”. With “RPMIHFGNDWEDRYYRENMYR(GGG) [SEQ ID NO: 44]” the “Western Blot” value was “−”.
